EC50 and Efficacy data for 17 compounds are collected here from patent US11517577B2, “Fluorinated bile acid derivatives” (NZP UK LIMITED, priority 2018, dated 2022).

The test addresses T1, Human Farnesoid X Receptor (NR1H4, FXR) (Homo sapiens, UniProt Q96RI1).
T1 sequence (Q96RI1 1-486): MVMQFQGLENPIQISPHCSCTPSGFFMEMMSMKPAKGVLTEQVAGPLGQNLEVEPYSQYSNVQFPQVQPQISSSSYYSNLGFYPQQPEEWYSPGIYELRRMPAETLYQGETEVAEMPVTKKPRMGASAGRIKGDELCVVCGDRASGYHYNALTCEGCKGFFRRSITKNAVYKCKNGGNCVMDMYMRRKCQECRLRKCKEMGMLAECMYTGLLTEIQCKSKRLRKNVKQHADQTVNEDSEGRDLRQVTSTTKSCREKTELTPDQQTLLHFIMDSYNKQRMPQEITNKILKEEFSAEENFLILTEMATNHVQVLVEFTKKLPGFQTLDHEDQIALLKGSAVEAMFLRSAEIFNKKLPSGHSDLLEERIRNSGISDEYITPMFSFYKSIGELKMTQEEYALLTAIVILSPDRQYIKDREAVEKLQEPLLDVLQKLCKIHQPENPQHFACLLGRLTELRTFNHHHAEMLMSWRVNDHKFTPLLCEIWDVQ
Briefly: FXR reporter assay, EC50 and efficacy (Indigo Biosciences luciferase reporter cells). Format: cell-based. The conditions noted are these: for Efficacy: maximum point on the dose response curve, GW4064 designated as 100%. The procedure: The compounds of the invention were assayed for agonist activity at the FXR receptor.
Dose-response assays were performed as described in the technical manual of the Human Farnesoid X Receptor (NR1H4, FXR) Reporter Assay System (Indigo Biosciences Human Farnesoid X Receptor (NR1H4, FXR) Reporter Assay System, Technical Manual (version 7.1b), at the World Wide Web (www)indiqobiosciences.com).
FXR reporter cells consisting of an FXR-responsive promoter gene functionally linked to the luciferase gene were defrosted and seeded into a 96-well plate and these cells were immediately dosed with the test compounds at different concentrations (10-0.05 μM) according to the manufacturer's protocol. […] Following this, the induction of luciferase activity, which is the measure of the agonist activity, was quantified by using luminometer (TECAN) according to the manufacturer's protocol.
A general note: A reporter such as luciferase makes a cellular process visible.

In general, EC50 refers to the concentration needed to bring the measured effect to its halfway point. For `CC[C@@H]1[C@@H]2[C@@H](F)[C@H](O)CC[C@]2(C)C2CC[C@@]3(C)C(CCC3[C@H](C)CCNC(=O)NS(=O)(=O)c3ccccc3F)C2[C@@H]1O` (stereo partly drawn) [Compound 8, N,N′-(3α,7α-Dihydroxyl-4β-fluoro-6α-ethyl-24-nor-5β-cholan-23-yl)-o-fluorobenzene sulfonyl urea], a half-maximal response (EC50) required 43 nM and the Efficacy stood at 159%.
Taken in the same sequence, the figures for `CC[C@@H]1[C@@H]2[C@@H](F)[C@H](O)CC[C@]2(C)C2CC[C@@]3(C)C(CCC3[C@H](C)CCNC(=O)NS(=O)(=O)c3cccc(C)c3)C2[C@@H]1O` (stereo partly drawn) [Compound 4, N,N′-(3α,7α-Dihydroxyl-4β-fluoro-6α-ethyl-24-nor-5β-cholan-23-yl)-m-toluene sulfonyl urea] were 23 nM and 148%.
The corresponding values for `CC[C@@H]1[C@@H]2[C@@H](F)[C@H](O)CC[C@]2(C)C2CC[C@@]3(C)C(CCC3[C@H](C)CCNC(=O)NS(=O)(=O)c3ccc(OC)cc3)C2[C@@H]1O` (stereo partly drawn) [Compound 13, N,N′-(3α,7α-Dihydroxyl-4β-fluoro-6α-ethyl-24-nor-5β-cholan-23-yl)-p-methoxybenzene sulfonyl urea] are 48 nM and 250%.
In the case of `CC[C@@H]1[C@@H]2[C@@H](F)[C@H](O)CC[C@]2(C)C2CC[C@@]3(C)C(CCC3[C@H](C)CCNC(=O)NS(=O)(=O)c3ccccc3C(F)(F)F)C2[C@@H]1O` (stereo partly drawn) [Compound 11, N,N′-(3α,7α-Dihydroxyl-4β-fluoro-6α-ethyl-24-nor-5β-cholan-23-yl)-o-(trifluoromethyl)benzene sulfonyl urea], the EC50 came to 123 nM and the Efficacy was found to be 104%.
The corresponding values for `CC[C@@H]1[C@@H]2[C@@H](F)[C@H](O)CC[C@]2(C)C2CC[C@@]3(C)C(CCC3[C@H](C)CCNC(=O)NS(=O)(=O)c3ccc(C(C)(C)C)cc3)C2[C@@H]1O` (stereo partly drawn) [Compound 3, N,N′-(3α,7α-Dihydroxyl-4β-fluoro-6α-ethyl-24-nor-5β-cholan-23-yl)-4-(tert-butyl) benzene sulfonyl urea] are 19 nM and 151%.
The corresponding values for `CC[C@@H]1[C@@H]2[C@@H](F)[C@H](O)CC[C@]2(C)C2CC[C@@]3(C)C(CCC3[C@H](C)CCNC(=O)NS(=O)(=O)c3ccc(OC(F)(F)F)cc3)C2[C@@H]1O` (stereo partly drawn) [Compound 12, N,N′-(3α,7α-Dihydroxyl-4β-fluoro-6α-ethyl-24-nor-5β-cholan-23-yl)-4-(trifluoromethoxy)benzene sulfonyl urea] are 27 nM and 176%.
Taken in the same sequence, the figures for `CC[C@H]1[C@@H](O)[C@@H]2[C@H](CC[C@]3(C)[C@@H]([C@H](C)CCC(=O)NS(=O)(=O)c4cccc(F)c4)CC[C@@H]23)[C@@]2(C)CC[C@@H](O)[C@H](F)[C@@H]12` [Compound 16, N-(3α,7α-Dihydroxyl-4β-fluoro-6α-ethyl-5β-cholan-24-oyl)-m-fluorophenyl sulfonamide] were 46 nM and 143%.
Turning to `CC[C@@H]1[C@@H]2[C@@H](F)[C@H](O)CC[C@]2(C)C2CC[C@@]3(C)C(CCC3[C@H](C)CCNC(=O)NS(=O)(=O)c3ccc(C(F)(F)F)cc3)C2[C@@H]1O` (stereo partly drawn) [Compound 9, N,N′-(3α,7α-Dihydroxyl-4β-fluoro-6α-ethyl-24-nor-5β-cholan-23-yl)-p-(trifluoromethyl)benzene sulfonyl urea], the EC50 is 50 nM and the Efficacy was determined as 158%.
Taken in the same sequence, the figures for `CC[C@H]1[C@@H](O)[C@@H]2[C@H](CC[C@]3(C)[C@@H]([C@H](C)CCC(=O)NS(=O)(=O)c4ccc(F)cc4)CC[C@@H]23)[C@@]2(C)CC[C@@H](O)[C@H](F)[C@@H]12` [Compound 15, N-(3α,7α-Dihydroxyl-4β-fluoro-6α-ethyl-5β-cholan-24-oyl)-p-fluorobenzene sulfonamide] were 38 nM and 98%.
The compound `CC[C@H]1[C@@H](O)[C@@H]2[C@H](CC[C@]3(C)[C@@H]([C@H](C)CCC(=O)NS(=O)(=O)c4cccc(C(F)(F)F)c4)CC[C@@H]23)[C@@]2(C)CC[C@@H](O)[C@H](F)[C@@H]12` [Compound 19, N-(3α,7α-Dihydroxyl-4β-fluoro-6α-ethyl-5β-cholan-24-oyl)-3-trifluoromethylphenyl sulfonamide] gave an EC50 of 50 nM and an Efficacy of 136%.
Take `CC[C@H]1[C@@H](O)[C@@H]2[C@H](CC[C@]3(C)[C@@H]([C@H](C)CCC(=O)NS(=O)(=O)C4CC4)CC[C@@H]23)[C@@]2(C)CC[C@@H](O)[C@H](F)[C@@H]12` [Comparative compound B, N-(3α,7α-Dihydroxyl-4β-fluoro-6α-ethyl-5β-cholan-24-oyl)-cyclopropyl sulfonamide, reference compound]: a half-maximal response (EC50) required 158 nM and the Efficacy came to 132%.
`CC[C@H]1[C@@H](O)[C@@H]2[C@H](CC[C@]3(C)[C@@H]([C@H](C)CCC(=O)NS(C)(=O)=O)CC[C@@H]23)[C@@]2(C)CC[C@@H](O)[C@H](F)[C@@H]12` [Comparative compound C, N-(3α,7α-Dihydroxyl-4β-fluoro-6α-ethyl-5β-cholan-24-oyl)-methyl sulfonamide, reference compound]: the EC50 came out at 192 nM and the Efficacy was 130%.
Taken in the same sequence, the figures for `CC[C@H]1[C@@H](O)C2C3CCC([C@H](C)CCNC(=O)NS(=O)(=O)c4ccccc4)[C@@]3(C)CCC2[C@@]2(C)CC[C@@H](O)C[C@@H]12` (stereo partly drawn) [Comparative compound A, N,N′-(3α,7α-Dihydroxyl-6α-ethyl-24-nor-5β-cholan-23-yl)-benzene sulfonyl urea, reference compound] were 32 nM and 147%.
Taken in the same sequence, the figures for `CC[C@@H]1[C@@H]2[C@@H](F)[C@H](O)CC[C@]2(C)C2CC[C@@]3(C)C(CCC3[C@H](C)CCNC(=O)NS(=O)(=O)c3ccccc3C)C2[C@@H]1O` (stereo partly drawn) [Compound 5, N,N′-(3α,7α-Dihydroxyl-4β-fluoro-6α-ethyl-24-nor-5β-cholan-23-yl)-o-toluene sulfonyl urea] were 28 nM and 166%.
Taken in the same sequence, the figures for `CC[C@@H]1[C@@H]2[C@@H](F)[C@H](O)CC[C@]2(C)C2CC[C@@]3(C)C(CCC3[C@H](C)CCNC(=O)NS(=O)(=O)c3ccc(F)cc3)C2[C@@H]1O` (stereo partly drawn) [Compound 6, N,N′-(3α,7α-Dihydroxyl-4β-fluoro-6α-ethyl-24-nor-5β-cholan-23-yl)-p-fluorobenzene sulfonyl urea] were 32 nM and 187%.
In turn, `CC[C@@H]1[C@@H]2[C@@H](F)[C@H](O)CC[C@]2(C)C2CC[C@@]3(C)C(CCC3[C@H](C)CCNC(=O)NS(=O)(=O)c3ccc(C)cc3)C2[C@@H]1O` (stereo partly drawn) [Compound 1, N,N′-(3α,7α-Dihydroxyl-4β-fluoro-6α-ethyl-24-nor-5β-cholan-23-yl)-p-toluene sulfonyl urea] came in with an EC50 of 18 nM and an Efficacy of 193%.
The corresponding values for `CC[C@H]1[C@@H](O)[C@@H]2[C@H](CC[C@]3(C)[C@@H]([C@H](C)CCC(=O)NS(=O)(=O)c4ccccc4F)CC[C@@H]23)[C@@]2(C)CC[C@@H](O)[C@H](F)[C@@H]12` [Compound 17, N-(3α,7α-Dihydroxyl-4β-fluoro-6α-ethyl-5β-cholan-24-oyl)-o-fluorophenyl sulfonamide] are 34 nM and 121%.
